Values of other authors, collected in publication PMC4585333, “Novel Regulator of Acylated Ghrelin, CF801, Reduces Weight Gain, Rebound Feeding after a Fast, and Adiposity in Mice” (Frontiers in Endocrinology, 2015).

Columns and labels:
[1] = effects appear similar to those of CF801; ref [74], [75]; cited from earlier work
Protocol: Given the high amino acid similarity between CF801 and desacyl ghrelin, it is possible that CF801 acts like an analog of desacyl ghrelin. […] Alternatively, CF801 may reduce acylated ghrelin simply by reducing GOAT mRNA, and thus acyl ghrelin levels, without altering GOAT activity at least in the way that this is tested in vitro. While the mechanisms underlying these ef ...

[2] = system: GOAT; conditions: microsomal assay; ref [56]; cited from earlier work
Excerpt: An approach was undertaken to design a novel GOAT inhibitor, resulting in a compound we named CF801. The first five amino acids of CF801 derive from studies carried out in 2008 by Yang et al., who examined the inhibitory effect of certain pentapeptides (e.g., GSAFL-NH2) on GOAT using a microsomal assay ([56]). […] In synthesizing CF801, we extended and modified the original GSAFL-NH2 ...

[3] = cited from earlier work
Excerpt: One potential target for the control of body weight and appetite is the gut–brain peptide ghrelin. Ghrelin, a 28-amino-acid peptide produced in the X/A-like cells of the gastric oxyntic mucosa lining the stomach, is a key regulator of both short- and long-term energy homeostasis ([1]–[3]). Circulating ghrelin levels rise in anticipation of a meal and subside once the organism is satiated ([4]–[7]).

desacyl ghrelin
weight gain, ghrelin secretion and adipose tissue accumulation [1]: decrease in weight gain, ghrelin secretion, and adipose tissue accumulation

GSAFL-NH2
inhibitory activity on GOAT [2]: showed inhibitory activity on GOAT

ghrelin
feeding after injection ([3]; injections of ghrelin, ref [35]–[37]): vigorous feeding bouts
respiratory exchange ratio (RER) ([3]; mice receiving daily injections of ghrelin, ref [3]): increases in RER
